Earlier results as cited in patent publication US20250375533A1, “Sublingual Formulation of Anticancer Compound for Use in the Treatment of Autoimmune Neurodegenerative Diseases” (Vektor Pharma TF GmbH, priority 2022, published 2025).
Like-named read-outs stand apart in the source and are kept apart here.

Experiments:
[1] = in vivo
[2] = 37° C.
[3] = pH 1.4 solution; for active substance maintained: with cyclodextrins
[4] = oral solution without HPβCD
[5] = administered rectally
[6] = saliva
[7] = tested on: Clostridium perfringens; details: Clostridium perfringens culture
[8] = tested on: Escherichia coli; details: Escherichia coli culture
[9] = tested on: whole feces
[10] = tested on: Bacteroides fragilis
[11] = tested on: Enterococcus faecalis
[12] = target: BCRP (ABCG2) transporter proteins (Homo sapiens, UniProt Q9UNQ0)
Chain of BCRP (ABCG2) transporter proteins (Q9UNQ0 whole entry): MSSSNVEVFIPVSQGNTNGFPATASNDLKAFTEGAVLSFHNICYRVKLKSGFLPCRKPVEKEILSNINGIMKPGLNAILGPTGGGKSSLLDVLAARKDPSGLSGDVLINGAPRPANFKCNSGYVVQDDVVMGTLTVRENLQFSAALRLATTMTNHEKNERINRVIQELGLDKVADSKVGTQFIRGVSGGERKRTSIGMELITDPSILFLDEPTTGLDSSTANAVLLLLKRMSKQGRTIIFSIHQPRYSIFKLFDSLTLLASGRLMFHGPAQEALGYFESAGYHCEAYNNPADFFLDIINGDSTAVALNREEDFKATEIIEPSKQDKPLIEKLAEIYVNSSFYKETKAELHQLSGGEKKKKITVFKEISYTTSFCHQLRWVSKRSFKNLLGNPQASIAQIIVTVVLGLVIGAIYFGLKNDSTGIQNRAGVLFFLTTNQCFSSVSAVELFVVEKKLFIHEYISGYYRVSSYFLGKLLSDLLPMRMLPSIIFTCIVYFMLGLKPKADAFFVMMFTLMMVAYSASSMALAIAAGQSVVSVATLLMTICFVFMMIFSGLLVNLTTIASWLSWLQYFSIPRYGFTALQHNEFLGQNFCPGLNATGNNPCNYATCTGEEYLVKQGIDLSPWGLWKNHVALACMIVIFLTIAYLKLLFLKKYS

SMILES | interpatient variability, CV %, AUC inf [1] [%] | interpatient variability, CV %, AUC t [1] [%] | interpatient variability, CV %, Cmax [1] [%] | tin value of cladribine ([2]; pH 1.0 solutions) [h] | tin value of cladribine ([2]; pH 2.0 solutions) [h] | active substance remained in solution ([3]; absence of cyclodextrins, after 8 hours) [%] | active substance lost ([3]; absence of cyclodextrins, after about 3 hours) | active substance maintained ([3]; 8 hours) | active substance maintained ([3]; almost 5 hours) | bioavailability after oral administration [4] [%] | bioavailability [5] [%] | degradation [6] | solubility in water | degradation (deglycosylation to Cloroadenine) [7] | degradation (deglycosylation to Cloroadenine) [8] | degradation (deglycosylation to Cloroadenine) [9] | degradation [10] | degradation [11] | substrate of BCRP (ABCG2) transporter proteins [12]
Nc1nc(Cl)nc2c1ncn2[C@H]1C[C@H](O)[C@@H](CO)O1 [Mavenclad] | 29.2 | 29.8 | 43.0 | – | – | – | – | – | – | – | – | – | – | – | – | – | – | – | –
Nc1nc(Cl)nc2c1ncn2[C@H]1C[C@H](O)[C@@H](CO)O1 [cladribine, 2-chloro-2′-deoxyadenosine] | – | – | – | 0.37 | 1.6 | 15 | about 50% | approximately 70% | more than 80% | 35.3 | 21 | slowly or not at all | slightly soluble | rapidly deglycosylated | rapidly deglycosylated | rapidly deglycosylated | slowly or not at all | slowly or not at all | substrate of BCRP
